Assay results reported in ChEMBL document CHEMBL1150978, “Design and synthesis of cosalane, a novel anti-HIV agent” (Bioorg Med Chem Lett, 1993).

Legend:
CEM-SS [1] = experiment: Tested for the therapeutic index against CEM-SS cells of HIV-1 (IIIb); format: functional, Homo sapiens
CEM-SS [2] = experiment: Tested for the therapeutic index against CEM-SS cells of HIV-1 (RF); format: functional, Homo sapiens
CEM-SS [3] = experiment: Tested for the therapeutic index against CEM-SS cells of HIV-2 (NIH-D2); format: functional, Homo sapiens
CEM-SS [4] = experiment: Tested for the antiviral activity against CEM-SS cells infected with HIV-2 (NIH-D2); format: functional, cell-based; conditions: Homo sapiens
CEM-SS [5] = experiment: Tested for the inhibitory activity against CEM-SS cells; format: functional, cell-based; conditions: Homo sapiens
CEM-SS [6] = experiment: Tested for the antiviral activity against CEM-SS cells infected with HIV-1 (RF); value ranges from 2-15.; format: functional, cell-based; conditions: Homo sapiens
MT4 [7] = experiment: Tested for the antiviral activity against MT-4 cells infected with HIV (IIIb) strain resistant to non-nucleoside reverse transcriptase inhibitors; format: functional, cell-based; conditions: Homo sapiens
MT4 [8] = experiment: Tested for the inhibitory activity against MT-4 cells; format: functional, cell-based; conditions: Homo sapiens
MT2 [9] = experiment: Tested for the therapeutic index against MT-2 cells of AZT resistant strain of HIV-1 (A012); format: functional, Homo sapiens
MT2 [10] = experiment: Tested for the therapeutic index against MT-2 cells of AZT sensitive strain of HIV-1 (A012); format: functional, Homo sapiens
MT2 [11] = experiment: Tested for the antiviral activity against MT-2 cells infected with AZT resistant strain of HIV-1 (A012); format: functional, cell-based; conditions: Homo sapiens
MT2 [12] = experiment: Tested for the antiviral activity against MT-2 cells infected with AZT sensitive strain of HIV-1 (A012); format: functional, cell-based; conditions: Homo sapiens
MT2 [13] = experiment: Tested for the inhibitory activity against MT-2 cells; format: functional, cell-based; conditions: Homo sapiens
MT4 [14] = experiment: Tested for the therapeutic index against MT-4 cells of HIV-1 (IIIb); format: functional, Homo sapiens
[15] = Tested for the antiviral activity against Sc-1 cells infected with rauscher murine leukemia virus (R-Mul V) by plaque assay in mouse; format: functional, cell-based
[16] = Tested for the antiviral activity of production of viral antigen (p30) against Sc-1 cells of rauscher murine leukemia virus (R-Mul V); format: functional, cell-based; conditions: Mus musculus
[17] = Tested for the inhibitory activity of production of viral antigen (p30) against Sc-1 cells of rauscher murine leukemia virus (R-Mul V); format: functional, cell-based; conditions: Mus musculus
[18] = Tested for the therapeutic index against Sc-1 cells of rauscher murine leukemia virus (R-Mul V) by plaque assay in mouse; format: functional
[19] = Tested for the therapeutic index of production of viral antigen (p30) against Sc-1 cells of rauscher murine leukemia virus (R-Mul V); format: functional, Mus musculus
[20] = Tested for the inhibitory activity against Sc-1 cells by plaque assay in mouse; format: functional, cell-based

SMILES: CC(C)CCCC(C)[C@H]1CC[C@H]2[C@@H]3CCC4C[C@@H](CCC=C(c5cc(Cl)c(O)c(C(=O)O)c5)c5cc(Cl)c(O)c(C(=O)O)c5)CC[C@]4(C)[C@H]3CC[C@]12C (stereo not given in full)
- TI50 (CEM-SS [1]): >100
- TI50 (CEM-SS [2]): >20
- TI50 (CEM-SS [3]): >60
- EC50 (CEM-SS [4]): 5 µM
- IC50 (CEM-SS [5]): > 300 µM
- EC50 (CEM-SS [6]): 2 µM
- EC50 (MT4 [7]): 20 µM
- IC50 (MT4 [8]): > 300 µM
- TI50 (MT2 [9]): 20
- TI50 (MT2 [10]): 25
- EC50 (MT2 [11]): 10 µM
- EC50 (MT2 [12]): 8 µM
- IC50 (MT2 [13]): 200 µM
- TI50 (MT4 [14]): >15
- EC50 [15]: 4 µM
- EC50 [16]: 7 µM
- IC50 [17]: > 32 µM
- TI50 [18]: >8
- TI50 [19]: >4
- IC50 [20]: > 32 µM
